From patent publication US12723063B2, “GIPR-agonist compounds” (Eli Lilly and Company, priority 2019, dated 2026)
*1 amine or outer side, *2 acyl side, *3 side chain or, on linkers, in order; H or OH if unused. Where a SMILES comes first, the peptide text is derived from it. Side-chain parts run from the residue outwards. [ ]: non-standard residue; d: D form. The star is where a group is joined. C20 diacid = O=C(O)CCCCCCCCCCCCCCCCCCC(=O)*; γGlu = O=C(O)[C@H](CCC(=O)[*:2])N[*:1]; 4Pal = N[C@@H](Cc1ccncc1)C(=O)O; αMeL = CC(C)C[C@](C)(N)C(=O)O; Iva = CC[C@](C)(N)C(=O)O; Orn = NCCC[C@H](N)C(=O)O; AEEA = NCCOCCOCC(=O)O; Aib = CC(C)(N)C(=O)O

Legend:
[1] = molecular target: T1, human GLP-1 receptor (GLP-1R) (Homo sapiens, UniProt P43220); test: cAMP functional assay (HTRF) in HEK293 cells in presence of 0.1% casein; type: cell-based; settings: HEK293 cells expressing human GLP-1R, geometric mean, read-out: hGLP1R cAMP Rel EC50 nM (SEM, n)
T1 construct: expressed in transfected cells; host or cells: HEK293
T1 sequence (P43220 24-463): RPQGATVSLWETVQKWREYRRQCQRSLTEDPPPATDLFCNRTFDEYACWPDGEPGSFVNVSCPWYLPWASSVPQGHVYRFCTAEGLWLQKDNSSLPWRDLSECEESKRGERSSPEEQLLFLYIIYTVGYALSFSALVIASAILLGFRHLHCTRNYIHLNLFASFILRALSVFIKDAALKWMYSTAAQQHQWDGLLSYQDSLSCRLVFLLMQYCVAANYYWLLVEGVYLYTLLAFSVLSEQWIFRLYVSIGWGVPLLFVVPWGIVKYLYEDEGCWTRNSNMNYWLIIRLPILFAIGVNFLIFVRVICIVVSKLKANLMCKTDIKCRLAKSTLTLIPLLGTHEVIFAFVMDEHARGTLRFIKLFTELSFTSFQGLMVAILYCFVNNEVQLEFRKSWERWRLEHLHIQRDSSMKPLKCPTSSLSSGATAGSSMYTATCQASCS

human GIPR = molecular target: T2, human GIPR (Homo sapiens, UniProt P48546); test: [125I]-GIP binding, SPA with WGA beads, 0.1% bacitracin; settings: geometric mean, read-out: hGIPR Ki
T2 construct: expressed in transfected cells; crude membranes
T2 sequence (P48546 22-466): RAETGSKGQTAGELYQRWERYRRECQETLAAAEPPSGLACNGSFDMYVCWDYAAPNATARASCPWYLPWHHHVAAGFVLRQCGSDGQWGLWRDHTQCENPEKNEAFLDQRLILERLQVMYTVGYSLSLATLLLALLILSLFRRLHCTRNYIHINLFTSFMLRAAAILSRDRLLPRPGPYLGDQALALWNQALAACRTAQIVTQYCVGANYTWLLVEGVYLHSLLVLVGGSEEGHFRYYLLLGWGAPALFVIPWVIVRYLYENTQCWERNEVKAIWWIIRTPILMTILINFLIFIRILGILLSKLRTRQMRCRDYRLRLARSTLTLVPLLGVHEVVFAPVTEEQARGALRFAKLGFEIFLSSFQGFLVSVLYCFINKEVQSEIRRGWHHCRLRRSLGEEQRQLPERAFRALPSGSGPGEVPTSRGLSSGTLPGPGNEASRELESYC
Method in brief: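 Ki values are geometric means (SEM, n independent days), derived from four-parameter nonlinear regression of IC50. Membranes came from hGIPR-expressing CHO cells.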

SMILES | EC50 [1] [nM] | Ki (human GIPR) [nM]
CC[C@H](C)[C@H](NC(=O)[C@H](CO)NC(=O)[C@H](Cc1ccc(O)cc1)NC(=O)[C@H](CC(=O)O)NC(=O)[C@H](CO)NC(=O)[C@@H](NC(=O)[C@](C)(CC)NC(=O)[C@@H](NC(=O)CNC(=O)[C@H](CCC(=O)O)NC(=O)C(C)(C)NC(=O)[C@@H](N)Cc1ccc(O)cc1)[C@@H](C)O)[C@@H](C)CC)C(=O)N[C@@](C)(CC(C)C)C(=O)N[C@@H](CC(C)C)C(=O)N[C@@H](CC(=O)O)C(=O)N[C@@H](CCCCN)C(=O)N[C@@H](CCCCNC(=O)COCCOCCNC(=O)COCCOCCNC(=O)CC[C@H](NC(=O)CCCCCCCCCCCCCCCCCCC(=O)O)C(=O)O)C(=O)N[C@@H](Cc1c[nH]cn1)C(=O)N[C@@H](CCC(N)=O)C(=O)NC(C)(C)C(=O)N[C@@H](CC(=O)O)C(=O)N[C@@H](Cc1ccccc1)C(=O)N[C@H](C(=O)N[C@@H](CCC(=O)O)C(=O)N[C@@H](Cc1ccncc1)C(=O)N[C@@H](CC(C)C)C(=O)N[C@@H](CC(C)C)C(=O)N[C@@H](CCC(=O)O)C(=O)NCC(=O)NCC(=O)N1CCC[C@H]1C(=O)N[C@@H](CO)C(=O)N[C@@H](CO)C(=O)NCC(=O)N[C@@H](C)C(=O)N1CCC[C@H]1C(=O)N1CCC[C@H]1C(=O)N1CCC[C@H]1C(=O)N[C@@H](CO)C(N)=O)C(C)C [Example 74] (H-Y[Aib]EGT[Iva]ISDYSI[αMeL]LDKK([AEEA-AEEA-γGlu-C20 diacid])HQ[Aib]DFVE[4Pal]LLEGGPSSGAPPPS-NH2) | > 5000 | 0.0287
CC[C@H](C)[C@H](NC(=O)[C@H](CO)NC(=O)[C@H](Cc1ccc(O)cc1)NC(=O)[C@H](CC(=O)O)NC(=O)[C@H](CO)NC(=O)[C@@H](NC(=O)[C@](C)(CC)NC(=O)[C@@H](NC(=O)CNC(=O)[C@H](CCC(=O)O)NC(=O)C(C)(C)NC(=O)[C@@H](N)Cc1ccc(O)cc1)[C@@H](C)O)[C@@H](C)CC)C(=O)N[C@@](C)(CC(C)C)C(=O)N[C@@H](CC(C)C)C(=O)N[C@@H](CC(=O)O)C(=O)N[C@@H](CCCCN)C(=O)N[C@@H](CCCCNC(=O)COCCOCCNC(=O)COCCOCCNC(=O)CC[C@H](NC(=O)CCCCCCCCCCCCCCCCCCC(=O)O)C(=O)O)C(=O)N[C@@H](Cc1c[nH]cn1)C(=O)N[C@@H](CCC(N)=O)C(=O)NC(C)(C)C(=O)N[C@@H](CC(=O)O)C(=O)N[C@@H](Cc1ccccc1)C(=O)N[C@H](C(=O)N[C@@H](CCC(=O)O)C(=O)N[C@@H](Cc1ccncc1)C(=O)N[C@@H](CC(C)C)C(=O)N[C@@H](CC(C)C)C(=O)N[C@@H](CCC(=O)O)C(=O)N[C@H](C(=O)NCC(=O)N1CCC[C@H]1C(=O)N[C@@H](CO)C(=O)N[C@@H](CO)C(=O)NCC(=O)N[C@@H](C)C(=O)N1CCC[C@H]1C(=O)N1CCC[C@H]1C(=O)N1CCC[C@H]1C(=O)N[C@@H](CO)C(N)=O)[C@@H](C)O)C(C)C [Example 75] (H-Y[Aib]EGT[Iva]ISDYSI[αMeL]LDKK([AEEA-AEEA-γGlu-C20 diacid])HQ[Aib]DFVE[4Pal]LLETGPSSGAPPPS-NH2) | > 5000 | 0.0626
CC[C@H](C)[C@H](NC(=O)[C@H](CO)NC(=O)[C@H](Cc1ccc(O)cc1)NC(=O)[C@H](CC(=O)O)NC(=O)[C@H](CO)NC(=O)[C@@H](NC(=O)[C@](C)(CC)NC(=O)[C@@H](NC(=O)CNC(=O)[C@H](CCC(=O)O)NC(=O)C(C)(C)NC(=O)[C@@H](N)Cc1ccc(O)cc1)[C@@H](C)O)[C@@H](C)CC)C(=O)N[C@@](C)(CC(C)C)C(=O)N[C@@H](CC(C)C)C(=O)N[C@@H](CC(=O)O)C(=O)N[C@@H](CCCN)C(=O)N[C@@H](CCCCNC(=O)COCCOCCNC(=O)COCCOCCNC(=O)CC[C@H](NC(=O)CCCCCCCCCCCCCCCCCCC(=O)O)C(=O)O)C(=O)N[C@@H](Cc1c[nH]cn1)C(=O)N[C@@H](CCC(N)=O)C(=O)NC(C)(C)C(=O)N[C@@H](CC(=O)O)C(=O)N[C@@H](Cc1ccccc1)C(=O)N[C@H](C(=O)N[C@@H](CCC(=O)O)C(=O)N[C@@H](Cc1ccncc1)C(=O)N[C@@H](CC(C)C)C(=O)N[C@@H](CC(C)C)C(=O)N[C@@H](CCC(=O)O)C(=O)NCC(=O)NCC(=O)N1CCC[C@H]1C(=O)N[C@@H](CO)C(=O)N[C@@H](CO)C(=O)NCC(=O)N[C@@H](C)C(=O)N1CCC[C@H]1C(=O)N1CCC[C@H]1C(=O)N1CCC[C@H]1C(=O)N[C@@H](CO)C(N)=O)C(C)C [Example 76] (H-Y[Aib]EGT[Iva]ISDYSI[αMeL]LD[Orn]K([AEEA-AEEA-γGlu-C20 diacid])HQ[Aib]DFVE[4Pal]LLEGGPSSGAPPPS-NH2) | > 5000 | 0.0293
CC[C@H](C)[C@H](NC(=O)[C@H](CO)NC(=O)[C@H](Cc1ccc(O)cc1)NC(=O)[C@H](CC(=O)O)NC(=O)[C@H](CO)NC(=O)[C@@H](NC(=O)[C@](C)(CC)NC(=O)[C@@H](NC(=O)CNC(=O)[C@H](CCC(=O)O)NC(=O)C(C)(C)NC(=O)[C@@H](N)Cc1ccc(O)cc1)[C@@H](C)O)[C@@H](C)CC)C(=O)N[C@@](C)(CC(C)C)C(=O)N[C@@H](CC(C)C)C(=O)N[C@@H](CC(=O)O)C(=O)N[C@@H](CCCN)C(=O)N[C@@H](CCCCNC(=O)COCCOCCNC(=O)COCCOCCNC(=O)CC[C@H](NC(=O)CCCCCCCCCCCCCCCCCCC(=O)O)C(=O)O)C(=O)N[C@@H](Cc1c[nH]cn1)C(=O)N[C@@H](CCC(N)=O)C(=O)NC(C)(C)C(=O)N[C@@H](CC(=O)O)C(=O)N[C@@H](Cc1ccccc1)C(=O)N[C@H](C(=O)N[C@@H](CCC(=O)O)C(=O)N[C@@H](Cc1ccncc1)C(=O)N[C@@H](CC(C)C)C(=O)N[C@@H](CC(C)C)C(=O)N[C@@H](CCC(=O)O)C(=O)N[C@H](C(=O)NCC(=O)N1CCC[C@H]1C(=O)N[C@@H](CO)C(=O)N[C@@H](CO)C(=O)NCC(=O)N[C@@H](C)C(=O)N1CCC[C@H]1C(=O)N1CCC[C@H]1C(=O)N1CCC[C@H]1C(=O)N[C@@H](CO)C(N)=O)[C@@H](C)O)C(C)C [Example 77] (H-Y[Aib]EGT[Iva]ISDYSI[αMeL]LD[Orn]K([AEEA-AEEA-γGlu-C20 diacid])HQ[Aib]DFVE[4Pal]LLETGPSSGAPPPS-NH2) | > 5000 | 0.0841
CC[C@H](C)[C@H](NC(=O)[C@H](Cc1ccccc1)NC(=O)[C@@H](NC(=O)CNC(=O)[C@H](CCC(=O)O)NC(=O)C(C)(C)NC(=O)[C@@H](N)Cc1ccc(O)cc1)[C@@H](C)O)C(=O)N[C@@H](CO)C(=O)N[C@@H](CC(=O)O)C(=O)N[C@@H](Cc1ccc(O)cc1)C(=O)N[C@@H](CO)C(=O)N[C@H](C(=O)N[C@@](C)(CC(C)C)C(=O)N[C@@H](CC(C)C)C(=O)N[C@@H](CC(=O)O)C(=O)N[C@@H](CCCCN)C(=O)N[C@@H](CCCCNC(=O)COCCOCCNC(=O)COCCOCCNC(=O)CC[C@H](NC(=O)CCCCCCCCCCCCCCCCCCC(=O)O)C(=O)O)C(=O)N[C@@H](Cc1c[nH]cn1)C(=O)N[C@@H](CCC(N)=O)C(=O)NC(C)(C)C(=O)N[C@@H](CC(=O)O)C(=O)N[C@@H](Cc1ccccc1)C(=O)N[C@H](C(=O)N[C@@H](CCC(=O)O)C(=O)N[C@@H](Cc1ccncc1)C(=O)N[C@@H](CC(C)C)C(=O)N[C@@H](CC(C)C)C(=O)N[C@@H](C)C(=O)N[C@@H](C)C(=O)NCC(=O)N1CCC[C@H]1C(=O)N[C@@H](CO)C(=O)N[C@@H](CO)C(=O)NCC(=O)N[C@@H](C)C(=O)N1CCC[C@H]1C(=O)N1CCC[C@H]1C(=O)N1CCC[C@H]1C(=O)N[C@@H](CO)C(N)=O)C(C)C)[C@@H](C)CC [Example 78] | > 5000 | 0.0236
CC[C@H](C)[C@H](NC(=O)[C@H](Cc1ccccc1)NC(=O)[C@@H](NC(=O)CNC(=O)[C@H](CCC(=O)O)NC(=O)C(C)(C)NC(=O)[C@@H](N)Cc1ccc(O)cc1)[C@@H](C)O)C(=O)N[C@@H](CO)C(=O)N[C@@H](CC(=O)O)C(=O)N[C@@H](Cc1ccc(O)cc1)C(=O)N[C@@H](CO)C(=O)N[C@H](C(=O)N[C@@](C)(CC(C)C)C(=O)N[C@@H](CC(C)C)C(=O)N[C@@H](CC(=O)O)C(=O)N[C@@H](CCCCN)C(=O)N[C@@H](CCCCNC(=O)COCCOCCNC(=O)COCCOCCNC(=O)CC[C@H](NC(=O)CCCCCCCCCCCCCCCCCCC(=O)O)C(=O)O)C(=O)N[C@@H](Cc1c[nH]cn1)C(=O)N[C@@H](CCC(N)=O)C(=O)NC(C)(C)C(=O)N[C@@H](CC(=O)O)C(=O)N[C@@H](Cc1ccccc1)C(=O)N[C@H](C(=O)N[C@@H](CCC(=O)O)C(=O)N[C@@H](Cc1ccncc1)C(=O)N[C@@H](CC(C)C)C(=O)N[C@@H](CC(C)C)C(=O)N[C@@H](C)C(=O)N[C@@H](CCC(N)=O)C(=O)NCC(=O)N1CCC[C@H]1C(=O)N[C@@H](CO)C(=O)N[C@@H](CO)C(=O)NCC(=O)N[C@@H](C)C(=O)N1CCC[C@H]1C(=O)N1CCC[C@H]1C(=O)N1CCC[C@H]1C(=O)N[C@@H](CO)C(N)=O)C(C)C)[C@@H](C)CC [Example 79] (H-Y[Aib]EGTFISDYSI[αMeL]LDKK([AEEA-AEEA-γGlu-C20 diacid])HQ[Aib]DFVE[4Pal]LLAQGPSSGAPPPS-NH2) | > 5000 | 0.0229
